From the CheMixHub ionic liquid set

Assay: xn = mol fraction of the nth substance listed
Settings: 101.3 kPa

CCCC[n+]1ccn(C)c1.[Br-] + N[C@@H](CO)C(=O)O + O
viscosity [mPa·s]
Settings | 293.15 K | 298.15 K | 303.15 K | 308.15 K | 313.15 K
x2 = 0, x1 = 0.0007203 | – | – | – | – | 0.673
x2 = 0.0003632, x1 = 0.00072 | 1.028 | 0.917 | 0.824 | 0.747 | 0.681
x2 = 0.0003661, x1 = 0.001439 | 1.051 | 0.94 | 0.847 | 0.77 | 0.704
x2 = 0.0007261, x1 = 0.0007198 | 1.033 | 0.922 | 0.829 | 0.751 | 0.684
x2 = 0.0007318, x1 = 0.001438 | 1.056 | 0.945 | 0.852 | 0.773 | 0.707
x2 = 0.001089, x1 = 0.0007195 | 1.037 | 0.927 | 0.833 | 0.755 | 0.688
x2 = 0.001097, x1 = 0.001438 | 1.061 | 0.95 | 0.856 | 0.778 | 0.711
x2 = 0.001451, x1 = 0.0007192 | 1.043 | 0.931 | 0.838 | 0.759 | 0.693
x2 = 0.001463, x1 = 0.001437 | 1.067 | 0.954 | 0.861 | 0.782 | 0.716
x2 = 0.001808, x1 = 0.001437 | 1.072 | 0.959 | 0.865 | 0.787 | 0.72
x2 = 0.001813, x1 = 0.000719 | 1.047 | 0.936 | 0.842 | 0.764 | 0.697
x2 = 0.002175, x1 = 0.0007187 | 1.053 | 0.941 | 0.847 | 0.768 | 0.702
x2 = 0.002192, x1 = 0.001436 | 1.076 | 0.963 | 0.87 | 0.791 | 0.725
x2 = 0.002537, x1 = 0.0007185 | 1.057 | 0.946 | 0.851 | 0.773 | 0.706
x2 = 0.002557, x1 = 0.001436 | 1.082 | 0.968 | 0.874 | 0.796 | 0.729

CCCC[n+]1ccn(C)c1.[Br-] + N[C@@H](Cc1ccccc1)C(=O)O + O
viscosity [mPa·s]
Settings | 293.15 K | 298.15 K | 303.15 K | 308.15 K | 313.15 K
x2 = 0, x1 = 0.0007203 | – | – | – | – | 0.67
x2 = 0.0003641, x1 = 0.00072 | 1 | 0.97 | 0.88 | 0.77 | 0.68
x2 = 0.0003648, x1 = 0.001439 | 0.99 | 0.9 | 0.8 | 0.66 | 0.59
x2 = 0.0007259, x1 = 0.0007198 | 1.02 | 0.98 | 0.89 | 0.78 | 0.69
x2 = 0.0007309, x1 = 0.001438 | 1 | 0.91 | 0.81 | 0.68 | 0.6
x2 = 0.001089, x1 = 0.0007195 | 1.03 | 0.99 | 0.91 | 0.8 | 0.7
x2 = 0.001097, x1 = 0.001438 | 1.02 | 0.92 | 0.82 | 0.69 | 0.61
x2 = 0.00145, x1 = 0.0007192 | 1.04 | 1 | 0.92 | 0.81 | 0.72
x2 = 0.001463, x1 = 0.001437 | 1.03 | 0.93 | 0.83 | 0.7 | 0.63
x2 = 0.001814, x1 = 0.000719 | 1.05 | 1.02 | 0.93 | 0.82 | 0.73
x2 = 0.001827, x1 = 0.001437 | 1.04 | 0.95 | 0.85 | 0.71 | 0.64
x2 = 0.002174, x1 = 0.0007187 | 1.07 | 1.03 | 0.95 | 0.84 | 0.74
x2 = 0.002193, x1 = 0.001436 | 1.06 | 0.96 | 0.86 | 0.73 | 0.65
x2 = 0.002537, x1 = 0.0007185 | 1.08 | 1.04 | 0.96 | 0.85 | 0.76
x2 = 0.002556, x1 = 0.001436 | 1.07 | 0.97 | 0.87 | 0.74 | 0.67
